Like-named read-outs stand apart in the source and are kept apart here.
Assays:
SCLC cell lines = assay: categorisation of the SCLC cell line panel by EC50; type: cell-based, human; conditions: EC50 less than or equal to 4.1 μM
Description: (§1) Cells were treated at 10,000 or 50,000 cells per well for adherent or suspension cells, respectively, in 96-well microtiter plates in the presence of 10% human serum for 48 hours with or without ABT-263, in a humidified chamber with 5% CO2. ABT-263 was synthesized as previously described in Tse, C., Shoemaker, A. R., Adickes, J., et al., “ABT-263: a potent and orally bioavailable Bcl-2 family inhibitor,” Cancer Res 2008; 68: 3421-3428; and Oltersdorf, T., Elmore, S. W., Shoemaker, A. R., et al., “An inhibitor of Bcl-2 family proteins induces regression of solid tumours,” Nature 2005; 435: 677-681, and cell cytotoxicity EC50 values were assessed using CellTiter Glo (Promega, Madison Wis.).
(§2) o divide the training set cell lines into sensitive and resistant categories, a bivariate fit curve was generated for the ABT-263 EC50 versus rank and fitted with a smoothing spline (lambda=1), and the maximum increase in the slope was approximately 5 μM for both sets. […]
(§3) Division of cell lines into sensitive and resistant categories. […] To identify gene expression patterns that can predict sensitivity to ABT-263, as well as genes that might contribute to resistance to treatment, RNA expression profiles for a panel of SCLC cell lines were determined, as well as a panel of leukemia and lymphoma cell lines. […]

CCRF-CEM = assay: cell cytotoxicity EC50, CellTiter Glo, leukemia/lymphoma cell line; type: cell-based, human
Description: (§4) The SCLC and leukemia/lymphoma cell lines listed below were obtained from the American Type Culture Collection (Manassas, Va.), Deutsche Sammlung von Mikroorganismen und Zellkulturen (DSMZ, Braunsweig, Germany), or were the generous gift from Dr. Louis Staudt (National Cancer Institute) and were cultured as described in Tse, C., Shoemaker, A. R., Adickes, J., et al., “ABT-263: a potent and orally bioavailable Bcl-2 family inhibitor,” Cancer Res 2008; 68: 3421-3428; and Tahir, S. K., Yang, X., Anderson, M. G., et al., “Influence of Bcl-2 family members on the cellular response of small-cell lung cancer cell lines to ABT-737,” Cancer Res 2007; 67: 1176-1183.
as §1

SuDHL-4 = assay: as above; type: cell-based, human
Description: as §4, §1

SuPB15 = assay: as above; type: cell-based, human
Description: as §4, §1

CCRF-HSB2 = assay: as above; type: cell-based, human
Description: as §4, §1

HL60 = assay: as above; type: cell-based, human
Description: as §4, §1

Jurkat = assay: as above; type: cell-based, human
Description: as §4, §1

MV-4-11 = assay: as above; type: cell-based, human
Description: as §4, §1

U-937 = assay: as above; type: cell-based, human
Description: as §4, §1

RPMI 8226 = assay: as above; type: cell-based, human
Description: as §4, §1

I9.2 = assay: as above; type: cell-based, human
Description: as §4, §1

MOLT-4 = assay: as above; type: cell-based, human
Description: as §4, §1

K562 = assay: as above; type: cell-based, human
Description: as §4, §1

KG1a = assay: as above; type: cell-based, human; conditions: KG-1a
Description: as §4, §1

Raji = assay: as above; type: cell-based, human
Description: as §4, §1

[1] = test system: leukemia/lymphoma cell lines; assay: categorisation of the leukemia/lymphoma cell line panel by EC50; type: cell-based, human; conditions: EC50 less than or equal to 4.8 μM
Description: as §1, §2, §3

solid tumors = conditions: in vivo; cited from earlier work
[2] = test system: diverse panel of human cancer cell lines; conditions: cited from earlier work
[3] = 10% human serum, 48 hours, read-out: EC50
[4] = Homo sapiens, read-out: Response Designation

## CC1(C)CCC(c2ccc(Cl)cc2)=C(CN2CCN(c3ccc(C(=O)NS(=O)(=O)c4ccc(N[C@H](CCN5CCOCC5)CSc5ccccc5)c(S(=O)(=O)C(F)(F)F)c4)cc3)CC2)C1 [ABT-263, N-(4-(4-((2-(4-chlorophenyl)-5,5-dimethyl-1-cyclohex-1-en-1-yl)methyl)piperazin-1-yl)benzoyl)-4-(((1R)-3-(morpholin-4-yl)-1-((phenylsulfanyl)methyl)propyl)amino)-3-((trifluoromethyl)sulfonyl)benzenesulfonamide]
SCLC cell lines
  SCLC cell lines categorized as being sensitive: 26 out of 36
CCRF-CEM; [3]
  EC50: 0.765 µM
CCRF-CEM; [4]
  EC50: ≤ 4.8 µM
SuDHL-4; Homo sapiens, SU-DHL-4, read-out: Response Designation
  EC50: ≤ 4.8 µM
SuDHL-4; SU-DHL-4, 10% human serum, 48 hours, read-out: EC50
  EC50: 1.04 µM
SuPB15; Homo sapiens, SUP-B15, read-out: Response Designation
  EC50: ≤ 4.8 µM
SuPB15; SUP-B15, 10% human serum, 48 hours, read-out: EC50
  EC50: 0.26 µM
CCRF-HSB2; CCRF-HSB-2, 10% human serum, 48 hours, read-out: EC50
  EC50: 1.15 µM
CCRF-HSB2; Homo sapiens, CCRF-HSB-2, read-out: Response Designation
  EC50: ≤ 4.8 µM
HL60; HL-60, 10% human serum, 48 hours, read-out: EC50
  EC50: 4.84 µM
HL60; Homo sapiens, HL-60, read-out: Response Designation
  EC50: ≤ 4.8 µM
Jurkat; [3]
  EC50: 3.35 µM
Jurkat; [4]
  EC50: ≤ 4.8 µM
MV-4-11; Homo sapiens, MV4-11, read-out: Response Designation
  EC50: ≤ 4.8 µM
MV-4-11; MV4-11, 10% human serum, 48 hours, read-out: EC50
  EC50: 0.028 µM
U-937; [3]
  EC50: 33.9 µM
U-937; [4]
  EC50: > 4.8 µM
RPMI 8226; [3]
  EC50: 1.5 µM
RPMI 8226; [4]
  EC50: ≤ 4.8 µM
I9.2; [3]
  EC50: 1.8 µM
I9.2; [4]
  EC50: ≤ 4.8 µM
MOLT-4; Homo sapiens, MOLT-4, read-out: Response Designation
  EC50: ≤ 4.8 µM
MOLT-4; Molt-4, 10% human serum, 48 hours, read-out: EC50
  EC50: 0.385 µM
K562; [3]
  EC50: 12.8 µM
K562; [4]
  EC50: > 4.8 µM
KG1a; [4]
  EC50: ≤ 4.8 µM
KG1a; [3]
  EC50: 0.243 µM
Raji; [3]
  EC50: 23.7 µM
Raji; [4]
  EC50: > 4.8 µM
[1]
  leukemia/lymphoma cell lines categorized as being sensitive: 25 out of 31

## CN(C)CC[C@H](CSc1ccccc1)Nc1ccc(S(=O)(=O)NC(=O)c2ccc(N3CCN(Cc4ccccc4-c4ccc(Cl)cc4)CC3)cc2)cc1[N+](=O)[O-] [ABT-737, N-(4-(4-((4′-chloro(1,1′-biphenyl)-2-yl)methyl)piperazin-1-yl)benzoyl)-4-(((1R)-3-(dimethylamino)-1-((phenylsulfanyl)methyl)propyl)amino)-3-nitrobenzenesulfonamide]
Solid tumors
  effect on solid tumors: induce regression of solid tumors
[2]
  potency across a diverse panel of human cancer cell lines: selective potency against SCLC and lymphoma cell lines

From patent US20100028889A1, “COMPANION DIAGNOSTIC ASSAYS FOR CANCER THERAPY” (ABBOTT LABORATORIES, priority 2006, published 2010)
